Key:
[1] = molecular target: T1, CaV2.2 (Homo sapiens, UniProt Q00975)
[2] = molecular target: T1, CaV2.2; assay: cell-based
[3] = in vitro; settings: simulated intestinal fluid, pH 6.8

T1 sequence (Q00975 whole entry, looked up): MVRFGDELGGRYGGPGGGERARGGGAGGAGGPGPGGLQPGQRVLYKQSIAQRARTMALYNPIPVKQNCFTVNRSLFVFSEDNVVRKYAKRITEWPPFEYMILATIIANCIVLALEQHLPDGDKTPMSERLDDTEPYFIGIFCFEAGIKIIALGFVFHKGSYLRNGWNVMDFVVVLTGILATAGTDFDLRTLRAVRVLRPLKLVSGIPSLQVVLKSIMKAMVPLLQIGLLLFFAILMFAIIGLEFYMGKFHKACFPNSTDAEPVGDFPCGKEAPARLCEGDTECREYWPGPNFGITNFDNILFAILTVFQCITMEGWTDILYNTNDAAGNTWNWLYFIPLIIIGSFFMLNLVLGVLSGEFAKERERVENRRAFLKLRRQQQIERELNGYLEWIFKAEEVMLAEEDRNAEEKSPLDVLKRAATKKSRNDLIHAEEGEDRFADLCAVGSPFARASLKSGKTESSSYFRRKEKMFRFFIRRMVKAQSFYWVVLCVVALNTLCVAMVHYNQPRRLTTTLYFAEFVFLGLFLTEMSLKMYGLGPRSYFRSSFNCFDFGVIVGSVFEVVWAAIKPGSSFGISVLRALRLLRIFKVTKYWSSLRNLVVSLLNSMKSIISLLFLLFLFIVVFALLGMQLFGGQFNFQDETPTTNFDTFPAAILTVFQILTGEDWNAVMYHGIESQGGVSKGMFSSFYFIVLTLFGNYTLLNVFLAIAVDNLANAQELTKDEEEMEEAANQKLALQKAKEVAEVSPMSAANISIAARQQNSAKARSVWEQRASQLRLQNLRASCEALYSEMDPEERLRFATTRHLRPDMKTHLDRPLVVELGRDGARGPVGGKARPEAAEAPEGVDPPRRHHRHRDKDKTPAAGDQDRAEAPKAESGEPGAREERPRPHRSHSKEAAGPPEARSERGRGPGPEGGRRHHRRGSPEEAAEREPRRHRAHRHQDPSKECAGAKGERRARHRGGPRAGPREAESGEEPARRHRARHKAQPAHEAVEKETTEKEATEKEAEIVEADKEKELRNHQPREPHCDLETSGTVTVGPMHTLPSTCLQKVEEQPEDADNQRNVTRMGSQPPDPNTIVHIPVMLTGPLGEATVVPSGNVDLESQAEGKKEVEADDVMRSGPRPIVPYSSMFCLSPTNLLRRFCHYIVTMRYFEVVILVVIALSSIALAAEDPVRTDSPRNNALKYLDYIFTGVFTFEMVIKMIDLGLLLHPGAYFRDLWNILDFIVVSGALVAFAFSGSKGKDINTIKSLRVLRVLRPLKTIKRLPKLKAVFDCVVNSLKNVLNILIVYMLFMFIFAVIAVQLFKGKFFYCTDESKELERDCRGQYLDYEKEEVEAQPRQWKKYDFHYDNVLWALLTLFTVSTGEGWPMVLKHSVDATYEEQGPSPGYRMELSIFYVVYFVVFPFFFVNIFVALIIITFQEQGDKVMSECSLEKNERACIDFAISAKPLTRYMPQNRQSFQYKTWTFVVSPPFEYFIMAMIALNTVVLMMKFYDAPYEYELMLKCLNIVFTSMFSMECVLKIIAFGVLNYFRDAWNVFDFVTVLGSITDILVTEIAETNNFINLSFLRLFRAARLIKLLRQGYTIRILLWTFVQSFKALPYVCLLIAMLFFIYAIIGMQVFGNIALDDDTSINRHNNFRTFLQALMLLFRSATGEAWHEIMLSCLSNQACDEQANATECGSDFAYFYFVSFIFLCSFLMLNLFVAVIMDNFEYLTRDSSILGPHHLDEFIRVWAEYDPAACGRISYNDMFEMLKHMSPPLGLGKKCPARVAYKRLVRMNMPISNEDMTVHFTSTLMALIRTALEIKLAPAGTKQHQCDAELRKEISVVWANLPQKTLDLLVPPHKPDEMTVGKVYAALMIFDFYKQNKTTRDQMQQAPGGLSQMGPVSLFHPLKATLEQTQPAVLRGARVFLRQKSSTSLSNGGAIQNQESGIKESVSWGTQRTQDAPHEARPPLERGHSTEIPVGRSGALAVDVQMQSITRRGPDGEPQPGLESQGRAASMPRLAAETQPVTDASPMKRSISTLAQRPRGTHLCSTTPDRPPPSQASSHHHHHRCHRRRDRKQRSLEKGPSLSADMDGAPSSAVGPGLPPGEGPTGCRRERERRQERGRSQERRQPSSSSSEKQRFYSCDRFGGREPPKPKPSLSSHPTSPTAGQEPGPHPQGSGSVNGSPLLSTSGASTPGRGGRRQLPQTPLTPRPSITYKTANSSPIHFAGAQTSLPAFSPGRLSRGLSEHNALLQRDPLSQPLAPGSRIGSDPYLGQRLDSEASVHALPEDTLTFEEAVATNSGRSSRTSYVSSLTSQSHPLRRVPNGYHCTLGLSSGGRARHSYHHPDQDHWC

Compound | LogEC50 [1] | EC50 [2] [nM] | IC50 [2] [nM] | half-life [3] [min] | remaining at 1 h [3] [%]
CCCC[C@@H]1NC(=O)[C@H](CC(C)C)NC(=O)[C@H](CCCNC(=N)N)NC(=O)[C@H](CO)NC(=O)[C@@H]2CSSC[C@@H]3NC(=O)[C@H](CO)NC(=O)CNC(=O)[C@H]([C@@H](C)O)NC(=O)[C@H](CSSC[C@H](N)C(=O)N[C@@H](CCCCN)C(=O)NCC(=O)N[C@@H](CCCCN)C(=O)NCC(=O)N[C@@H](C)C(=O)N[C@@H](CCCCN)C(=O)N2)NC(=O)[C@H](CSSC[C@@H](C(N)=O)NC(=O)[C@H](CCCCN)NC(=O)CNC(=O)[C@H](CO)NC(=O)[C@H](CCCNC(=N)N)NC3=O)NC(=O)[C@H](CC(=O)O)NC(=O)[C@H](Cc2ccc(O)cc2)NC1=O [M-2] | -9.9 | 0.1 | 0.1 | – | –
CSCC[C@@H]1NC(=O)[C@H](CC(C)C)NC(=O)[C@H](CCCNC(=N)N)NC(=O)[C@H](CO)NC(=O)[C@@H]2CSSC[C@@H]3NC(=O)[C@H](CO)NC(=O)CNC(=O)[C@H]([C@@H](C)O)NC(=O)[C@H](CSSC[C@H](N)C(=O)N[C@@H](CCCCN)C(=O)NCC(=O)N[C@@H](CCCCN)C(=O)NCC(=O)N[C@@H](C)C(=O)N[C@@H](CCCCN)C(=O)N2)NC(=O)[C@H](CSSC[C@@H](C(=O)O)NC(=O)[C@H](CCCCN)NC(=O)CNC(=O)[C@H](CO)NC(=O)[C@H](CCCNC(=N)N)NC3=O)NC(=O)[C@H](CC(=O)O)NC(=O)[C@H](Cc2ccc(O)cc2)NC1=O [M-3] | -8.8 | 1.7 | 1.7 ± 1.2 | – | –
CCCC[C@@H]1NC(=O)[C@H](CC(C)C)NC(=O)[C@H](CCCNC(=N)N)NC(=O)[C@H](CO)NC(=O)[C@@H]2CSSC[C@@H]3NC(=O)[C@H](CO)NC(=O)CNC(=O)[C@H]([C@@H](C)O)NC(=O)[C@@H]4CSSC[C@H](NC(=O)[C@H](C)NC(=O)CNC(=O)CNC(=O)[C@H](CC(N)=O)NC(=O)CNC(=O)[C@H](C)NC(=O)[C@H](CSSC[C@H](NC(=O)[C@H](CC(=O)O)NC(=O)[C@H](Cc5ccc(O)cc5)NC1=O)C(=O)N4)NC(=O)[C@H](CCCCN)NC(=O)CNC(=O)[C@H](CO)NC(=O)[C@H](CCCNC(=N)N)NC3=O)C(=O)N[C@@H](CCCCN)C(=O)NCC(=O)N[C@@H](CCCCN)C(=O)NCC(=O)N[C@@H](C)C(=O)N[C@@H](CCCCN)C(=O)N2 [cM-6] | -7.4 | 43.2 | 43.2 ± 1.4 | – | –
CCCC[C@@H]1NC(=O)[C@H](CC(C)C)NC(=O)[C@H](CCCNC(=N)N)NC(=O)[C@H](CO)NC(=O)[C@@H]2CSSC[C@@H]3NC(=O)[C@H](CO)NC(=O)CNC(=O)[C@H]([C@@H](C)O)NC(=O)[C@@H]4CSSC[C@H](NC(=O)[C@H](C)NC(=O)[C@H](C)NC(=O)CNC(=O)CNC(=O)[C@H](CC(N)=O)NC(=O)CNC(=O)[C@H](C)NC(=O)[C@H](CSSC[C@H](NC(=O)[C@H](CC(=O)O)NC(=O)[C@H](Cc5ccc(O)cc5)NC1=O)C(=O)N4)NC(=O)[C@H](CCCCN)NC(=O)CNC(=O)[C@H](CO)NC(=O)[C@H](CCCNC(=N)N)NC3=O)C(=O)N[C@@H](CCCCN)C(=O)NCC(=O)N[C@@H](CCCCN)C(=O)NCC(=O)N[C@@H](C)C(=O)N[C@@H](CCCCN)C(=O)N2 [cM-7] | -7.8 | 13.5 | 13.5 ± 1.2 | 43 | ~38
CCCC[C@@H]1NC(=O)[C@H](CC(C)C)NC(=O)[C@H](CCCNC(=N)N)NC(=O)[C@H](CO)NC(=O)[C@@H]2CSSC[C@@H]3NC(=O)[C@H](CO)NC(=O)CNC(=O)[C@H]([C@@H](C)O)NC(=O)[C@@H]4CSSC[C@H](NC(=O)[C@H](C)NC(=O)[C@H](C)NC(=O)CNC(=O)CNC(=O)[C@H](CC(N)=O)NC(=O)CNC(=O)CNC(=O)[C@H](C)NC(=O)[C@H](CSSC[C@H](NC(=O)[C@H](CC(=O)O)NC(=O)[C@H](Cc5ccc(O)cc5)NC1=O)C(=O)N4)NC(=O)[C@H](CCCCN)NC(=O)CNC(=O)[C@H](CO)NC(=O)[C@H](CCCNC(=N)N)NC3=O)C(=O)N[C@@H](CCCCN)C(=O)NCC(=O)N[C@@H](CCCCN)C(=O)NCC(=O)N[C@@H](C)C(=O)N[C@@H](CCCCN)C(=O)N2 [cM-8] | -7.6 | 21.8 | 21.8 ± 1.2 | – | –
CCCC[C@@H]1NC(=O)[C@H](CC(C)C)NC(=O)[C@H](CCCNC(=N)N)NC(=O)[C@H](CO)NC(=O)[C@@H]2CSSC[C@@H]3NC(=O)[C@H](CO)NC(=O)CNC(=O)[C@H]([C@@H](C)O)NC(=O)[C@@H]4CSSC[C@H](NC(=O)[C@H](C)NC(=O)[C@H](C)NC(=O)CNC(=O)CNC(=O)[C@H](CC(N)=O)NC(=O)CNC(=O)CNC(=O)[C@H](C)NC(=O)[C@H](C)NC(=O)[C@H](CSSC[C@H](NC(=O)[C@H](CC(=O)O)NC(=O)[C@H](Cc5ccc(O)cc5)NC1=O)C(=O)N4)NC(=O)[C@H](CCCCN)NC(=O)CNC(=O)[C@H](CO)NC(=O)[C@H](CCCNC(=N)N)NC3=O)C(=O)N[C@@H](CCCCN)C(=O)NCC(=O)N[C@@H](CCCCN)C(=O)NCC(=O)N[C@@H](C)C(=O)N[C@@H](CCCCN)C(=O)N2 [cM-9] | -6.4 | 307 | 306.6 ± 1.5 | – | –

Source: publication PMC10952433, “A Chemoenzymatic Approach To Produce a Cyclic Analogue of the Analgesic Drug MVIIA (Ziconotide)” (Angewandte Chemie (International Ed. in English), 2023)
